Results as given in patent publication US6235284A, “Synthetic polypeptides belonging to the hepatitis C virus (HCV) and which can be used especially for detecting the latter” (Bio Merieux, priority 1992, dated 2001).

Key:
[1] = system: anti-HCV antibodies (HCV-positive sera); test: ELISA detection of anti-HCV antibodies in HCV-positive sera with adsorbed peptides; format: binding, human
Procedure: The reactivity of these three peptides towards the sera of individuals infected with the hepatitis C virus, termed (HCV) positive, was evaluated in an ELISA test according to the procedure described below.
Detection of anti-HCV Antibodies by ELISA
The wells of a microtiter plate of "NUNC MAXISORB™" trademark are saturated with 100 μl of a solution containing the peptide or a mixture of peptides (10 μg/ml) for 2 hours at 37° C. The plate is then emptied, then washed with a wash buffer containing 0.05% TWEEN™ 20(polysorbate 20). The wells are saturated with 100 μl of wash buffer supplemented with 10% goat serum (v/v), then incubated for 30 minutes at 37° C., then washed again as above. The sera to be analyzed are diluted to the appropriate dilution with saturation buffer. The incubation of the sera is 1 hour at 37° C. The wells are again washed. The solution of conjugate (goat IgG to human IgG labelled with peroxidase) at a dilution of 1/1000 in the saturation buffer is then added and the incubation lasts for 90 minutes at 37° C. After washing, the solution of orthophenylenediamine substrate is added. After 10 minutes, the reaction is stopped with 50 μl of H2 SO4 and the optical density is read at 492 nm. It should be noted that all the tests were carried out in duplicate.
For that, the different peptides are adsorbed on the microplates at a concentration of 10 μg/ml and the sera are used at 1/100 dilution.
The values obtained, which are collated in Table 1 below, correspond to the optical density (OD) multiplied by 10^3, at 492 nm.
For each serum the experiment was carried out in duplicate. The **** are values outside the upper scale.
The different peptides are absorbed onto microplates at a concentration of 10 μg/ml and the sera are used at the dilution stated.
The values obtained, which are collated in Table 2 below, correspond to the optical density at 492 nm. All the experiments were carried out in duplicate.
Each serum was, in a first instance, tested at the dilution 1/100.
The values given correspond to the optical density read at 492 nm multiplied by the factor 10^3.

[2] = system: anti-HCV antibodies binding onto peptide S42G; test: Inhibition test: inhibition of binding of anti-HCV antibodies onto peptide S42G by preincubation with peptides; set-up: species or system human; settings: inhibitor 0.1 mg/ml
Procedure: To evaluate this hypothesis, inhibition tests, whose usefulness lies in the fact that they allow the formation of the antigen-antibody complex in liquid medium, were carried out, thus dispensing with possible artifacts linked to the adsorption of peptides onto a solid support.
The inhibition experiments were carried out by reaction, in liquid phase, of the HCV sera with the peptides followed by reaction of the remaining antibodies with the peptide adsorbed onto the microplates. The inhibitory peptides are incubated at a concentration of 0.1 mg/ml with sera of appropriate dilution. The rest of the manipulation is identical to that described for the ELISA test.
Peptide S18D (SEQ ID NO:11), or V22G (SEQ ID NO:12), or a mixture of both, is preincubated overnight in the presence of the serum to be tested. The antibodies can bind onto the corresponding sites.

S18D: a peptide of 20 amino acids covering sequence 2 to 21 of the CORE protein (STNPKPQRKTKRNTNRRPQD)
optical density at 492 nm ([1]; Table 2, line 68, serum not named (below CTS), 1/100): 2.500 OD | optical density at 492 nm ([1]; Table 2, line 69, serum not named (below CTS), 1/1000): 2.500 OD | optical density at 492 nm ([1]; Table 2, line 70, serum not named (below CTS), 1/10000): 0.347 OD | optical density at 492 nm ([1]; Table 2, line 75, serum B4, 1/1000): 1.250 OD | optical density at 492 nm ([1]; Table 2, line 76, serum B4, 1/1000 (so in the source)): 0.171 OD | optical density at 492 nm ([1]; Table 2, serum B1, 1/100): 1.859 OD | optical density at 492 nm ([1]; Table 2, serum B2, 1/100): 1.781 OD | optical density at 492 nm ([1]; Table 2, serum B3, 1/100): 1.244 OD | optical density at 492 nm ([1]; Table 2, serum B4, 1/100): 2.500 OD | optical density at 492 nm ([1]; Table 2, serum B5, 1/100): 2.032 OD | optical density at 492 nm ([1]; Table 2, serum B6, 1/100): 2.500 OD | optical density at 492 nm ([1]; Table 2, serum B7, 1/100): 2.500 OD | optical density at 492 nm ([1]; Table 2, serum B8, 1/100): 1.362 OD | optical density at 492 nm ([1]; Table 2, serum B9, 1/100): 0.808 OD | optical density at 492 nm ([1]; Table 2, serum B10, 1/100): 0.099 OD | optical density at 492 nm ([1]; Table 2, serum B11, 1/100): 2.324 OD | optical density at 492 nm ([1]; Table 2, serum B12, 1/100): 1.375 OD | optical density at 492 nm ([1]; Table 2, serum B13, 1/100): 0.370 OD | optical density at 492 nm ([1]; Table 2, serum B14, 1/100): 0.072 OD | optical density at 492 nm ([1]; Table 2, serum B15, 1/100): 0.090 OD | optical density at 492 nm ([1]; Table 2, serum B16, 1/100): 2.500 OD | optical density at 492 nm ([1]; Table 2, serum CTS, 1/100): 2.500 OD | optical density at 492 nm ([1]; Table 2, serum CTS, 1/1000): 2.500 OD | optical density at 492 nm ([1]; Table 2, serum CTS, 1/10000): 0.295 OD | optical density at 492 nm ([1]; Table 2, serum P1, 1/100): 0.012 OD | optical density at 492 nm ([1]; Table 2, serum P2, 1/100): 0.020 OD | optical density at 492 nm ([1]; Table 2, serum P3, 1/100): 0.162 OD | optical density at 492 nm ([1]; Table 2, serum P4, 1/100): 0.982 OD | optical density at 492 nm ([1]; Table 2, serum P5, 1/100): 2.500 OD | optical density at 492 nm ([1]; Table 2, serum P5, 1/1000): 2.317 OD | optical density at 492 nm ([1]; Table 2, serum P5, 1/10000): 0.399 OD | optical density at 492 nm ([1]; Table 2, serum P6, 1/100): 0.007 OD | optical density at 492 nm ([1]; Table 2, serum P7, 1/100): 2.500 OD | optical density at 492 nm ([1]; Table 2, serum P7, 1/1000): 0.854 OD | optical density at 492 nm ([1]; Table 2, serum P7, 1/10000): 0.165 OD | optical density at 492 nm ([1]; Table 2, serum P8, 1/100): 2.500 OD | optical density at 492 nm ([1]; Table 2, serum P8, 1/1000): 2.500 OD | optical density at 492 nm ([1]; Table 2, serum P8, 1/10000): 0.681 OD | optical density at 492 nm ([1]; Table 2, serum P9, 1/100): 0.019 OD | optical density at 492 nm ([1]; Table 2, serum P10, 1/100): 0.028 OD | optical density at 492 nm ([1]; Table 2, serum P11, 1/100): 0.383 OD | optical density at 492 nm ([1]; Table 2, serum P12, 1/100): 2.500 OD | optical density at 492 nm ([1]; Table 2, serum P12, 1/1000): 2.500 OD | optical density at 492 nm ([1]; Table 2, serum P12, 1/10000): 0.454 OD | optical density at 492 nm ([1]; Table 2, serum P13, 1/100): 0.012 OD | optical density at 492 nm ([1]; Table 2, serum P14, 1/100): 0.907 OD | optical density at 492 nm ([1]; Table 2, serum P15, 1/100): 2.500 OD | optical density at 492 nm ([1]; Table 2, serum P16, 1/100): 0.225 OD | optical density at 492 nm ([1]; Table 2, serum P17, 1/100): 0.297 OD | optical density at 492 nm ([1]; Table 2, serum P18, 1/100): 2.500 OD | optical density at 492 nm ([1]; Table 2, serum P18, 1/1000): 0.297 OD | optical density at 492 nm ([1]; Table 2, serum P18, 1/10000): 0.095 OD | optical density at 492 nm ([1]; Table 2, serum P19, 1/100): 0.011 OD | optical density at 492 nm ([1]; Table 2, serum P20, 1/100): 1.433 OD | optical density at 492 nm ([1]; Table 2, serum P21, 1/100): 0.111 OD | optical density at 492 nm ([1]; Table 2, serum P22, 1/100): 2.500 OD | optical density at 492 nm ([1]; Table 2, serum P22, 1/1000): 1.142 OD | optical density at 492 nm ([1]; Table 2, serum P22, 1/10000): 0.146 OD | optical density at 492 nm ([1]; Table 2, serum P23, 1/100): 0.015 OD | optical density at 492 nm ([1]; Table 2, serum P24, 1/100): 0.015 OD | optical density at 492 nm ([1]; Table 2, serum P25, 1/100): 2.500 OD | optical density at 492 nm ([1]; Table 2, serum P25, 1/1000): 2.199 OD | optical density at 492 nm ([1]; Table 2, serum P25, 1/10000): 0.329 OD | optical density at 492 nm ([1]; Table 2, serum P26, 1/100): 2.500 OD | optical density at 492 nm ([1]; Table 2, serum P26, 1/1000): 2.500 OD | optical density at 492 nm ([1]; Table 2, serum P26, 1/10000): 0.957 OD | optical density at 492 nm ([1]; Table 2, serum P27, 1/100): 1.425 OD | optical density at 492 nm ([1]; Table 2, serum P28, 1/100): 0.115 OD | optical density at 492 nm ([1]; Table 2, serum P29, 1/100): 0.000 OD | optical density at 492 nm ([1]; Table 2, serum P30, 1/100): 0.483 OD | optical density at 492 nm ([1]; Table 2, serum P31, 1/100): 2.500 OD | optical density at 492 nm ([1]; Table 2, serum P31, 1/1000): 1.975 OD | optical density at 492 nm ([1]; Table 2, serum P31, 1/10000): 0.183 OD | optical density at 492 nm ([1]; Table 2, serum P32, 1/100): 1.046 OD | optical density at 492 nm ([1]; Table 2, serum P33, 1/100): 1.307 OD | optical density at 492 nm ([1]; Table 2, serum P34, 1/100): 2.500 OD | optical density at 492 nm ([1]; Table 2, serum P35, 1/100): 2.500 OD | optical density at 492 nm ([1]; Table 2, serum P36, 1/100): 0.115 OD | optical density at 492 nm ([1]; Table 2, serum P37, 1/100): 2.500 OD | optical density at 492 nm ([1]; Table 2, serum P37, 1/1000): 0.523 OD | optical density at 492 nm ([1]; Table 2, serum P37, 1/10000): 0.102 OD | optical density at 492 nm ([1]; Table 2, serum P38, 1/100): 2.500 OD | optical density at 492 nm ([1]; Table 2, serum P38, 1/1000): 0.753 OD | optical density at 492 nm ([1]; Table 2, serum P38, 1/10000): 0.099 OD | optical density at 492 nm ([1]; Table 2, serum P39, 1/100): 2.500 OD | optical density at 492 nm ([1]; Table 2, serum P40, 1/100): 2.500 OD | optical density at 492 nm ([1]; Table 2, serum P41, 1/100): 1.579 OD | optical density at 492 nm ([1]; Table 2, serum P42, 1/100): 0.000 OD | reactivity towards HCV-positive sera ([1]; in words): react | inhibition ([2]; serum B4, 1/10,000): 16.8% | inhibition ([2]; serum P5, 1/10,000): 3.5% | inhibition ([2]; serum P7, 1/10,000): 8.4% | inhibition ([2]; serum P8, 1/10,000): 1.4% | inhibition ([2]; serum P18, 1/10,000): 10.6% | inhibition ([2]; serum P22, 1/10,000): 6.6% | inhibition ([2]; serum P25, 1/10,000): 14.1% | inhibition ([2]; serum P31, 1/10,000): 2.0% | inhibition ([2]; serum P37, 1/10,000): 43.6% | inhibition ([2]; serum P38, 1/10,000): 8.9%
